Measurements taken from US9062045B2, “Triazolopyridine compounds” (Novartis AG, priority 2012, dated 2015).
Like-named read-outs stand apart in the source and are kept apart here.

Tests used:
GTL16 cells = assay: GTL16 cell viability assay (CellTiter Glo); conditions: read-out: GTL-16 Proliferation IC50; GTL16 cells, 24 hours
Protocol: GTL16 Cell Viability Assay:
GTL16 expresses high level of c-Met receptor tyrosine kinase due to the gene amplification.
GTL16 cells were seeded in DMEM medium with 10% FBS and 1% Pene. & Strep. at 5000 cells/well/90 μL in 96 well plate and incubated overnight for attachment at 37° C. in 5% CO2 incubator. 10-fold serials dilutions of compounds were added to the cell as 10 μL/well. The final assay volume was 100 μl/well. The assay plates were incubated at 37° C. in 5% CO2 incubator for 24 hours. […] The chemiluminescent light unit was read in Envision from Perkin Elmer. All the tests were run at triplicates. The IC50 was calculated using Spotfire software.

human platelet PDE3 = human platelet PDE3 (Homo sapiens (Human), UniProt Q14432); assay: hPDE3 assay ([3H]cAMP scintillation proximity assay); type: biochemical
Excerpt: Here, compounds of formula I were screened for their ability to inhibit human PDE3 in the assay based on Amersham Pharmacia Biotech's Phosphodiesterase (PDE) [^3H]-adenosine 3′,5′ cyclic phosphate ([^3H]cAMP) Scintillation Proximity Assay (SPA). The assay is based on the hydrolysis of [^3H]cAMP, by human platelet PDE3, to [^3H]5′-adenoside monophosphate (5′-AMP). The [^3H]5′-AMP is specifically captured by yttrium silicate SPA beads in the presence of zinc sulphate.
• Optiplate and TopSeal-S (Can berra Packard) • Human platelet PDE3 (partially purified from human platelets)—a titration curve of human platelet PDE3 activity was performed to optimise the concentration of hPDE3 required in the assay. • Yttrium silicate SPA beads and [^3H]cAMP (Amersham) • Tris-Base, magnesium chloride, ethylenediaminetetraacetic acid (di-sodium salt), bovine serum albumin BSA and cAMP (Sigma) Solutions and Buffers: • Assay buffer: 7.56 g Tris-Base was dissolved in approximately 800 mL distilled water and the pH adjusted to 7.5 with 1 M hydrochloric acid. 10.3 mL 1 M magnesium chloride and 4.25 mL 0.5 M EDTA were added. The solution was made to 1 L with distilled water and stored at 4° C. On day of use 18 mL of the above solution was removed and 2 mL 5 mg/ml BSA were added thereto. • Enzyme buffer: 10 mM Tris-HCl at pH 7.5, 1 mM EDTA • Yttrium silicate SPA beads: 1 vial was reconstituted in 28 mL distilled water and stored at 4° C. Assay
The assay was performed in a final volume of 100 μL per well of an Optiplate (Canberra Packard). A 10 μL aliquot of the test compound dissolved in DMSO/distilled water was placed in a well of an Optiplate plate, followed by the addition of 80 μL ‘Assay mix’ (5.5 μL [^3H]cAMP and 88 μL “cold” cAMP were diluted to 8.8 mL using assay buffer). The reaction was started by adding 10 μL hPDE3 (50 μL stock hPDE3 solution was diluted 50 fold to 2.5 mL using enzyme buffer). The plate was incubated at room temperature for 30 min, the reaction was then terminated by the addition of 50 μL Yttrium silicate SPA beads (pre-warmed to room temperature) to all wells. […] The plate was sealed using TopSeal-S according to the manufacturer's instructions and counted using a Packard TopCount, each well being counted for 1 min. IC50 values were determined using non-linear regression.

Sequence of human platelet PDE3 (Q14432 whole entry): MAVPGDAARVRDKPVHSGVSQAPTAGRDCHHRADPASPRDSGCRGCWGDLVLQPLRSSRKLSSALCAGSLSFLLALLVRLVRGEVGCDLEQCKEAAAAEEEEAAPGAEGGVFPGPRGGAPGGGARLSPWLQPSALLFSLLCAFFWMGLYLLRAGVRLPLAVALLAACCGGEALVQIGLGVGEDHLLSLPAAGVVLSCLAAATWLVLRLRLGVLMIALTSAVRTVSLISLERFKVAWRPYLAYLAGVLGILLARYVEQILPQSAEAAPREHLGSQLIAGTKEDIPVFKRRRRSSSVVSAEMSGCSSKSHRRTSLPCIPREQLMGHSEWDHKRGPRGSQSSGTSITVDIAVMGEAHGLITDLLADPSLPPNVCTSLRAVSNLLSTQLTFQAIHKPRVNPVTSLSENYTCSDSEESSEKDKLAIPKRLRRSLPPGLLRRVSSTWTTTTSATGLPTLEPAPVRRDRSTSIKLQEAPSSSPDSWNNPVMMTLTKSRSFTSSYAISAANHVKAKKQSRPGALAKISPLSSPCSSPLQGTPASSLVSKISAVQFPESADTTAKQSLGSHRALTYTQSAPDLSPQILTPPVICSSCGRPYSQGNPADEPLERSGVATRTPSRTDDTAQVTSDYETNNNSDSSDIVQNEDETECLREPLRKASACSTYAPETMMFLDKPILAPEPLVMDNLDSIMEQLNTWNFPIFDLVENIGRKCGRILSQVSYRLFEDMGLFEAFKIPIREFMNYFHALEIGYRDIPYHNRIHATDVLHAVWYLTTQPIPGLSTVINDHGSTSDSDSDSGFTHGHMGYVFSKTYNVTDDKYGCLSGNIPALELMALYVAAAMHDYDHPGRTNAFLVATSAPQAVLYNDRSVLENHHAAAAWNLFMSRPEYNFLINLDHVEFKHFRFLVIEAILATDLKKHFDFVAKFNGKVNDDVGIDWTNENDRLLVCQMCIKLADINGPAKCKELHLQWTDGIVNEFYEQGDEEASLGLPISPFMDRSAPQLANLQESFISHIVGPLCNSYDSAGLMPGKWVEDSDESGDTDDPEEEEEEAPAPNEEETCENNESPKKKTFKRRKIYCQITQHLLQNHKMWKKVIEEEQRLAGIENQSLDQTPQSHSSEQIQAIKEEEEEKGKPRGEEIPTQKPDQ

Row | SMILES | IC50 (GTL16 cells) [nM] | IC50 (human platelet PDE3; human platelet PDE3) [nM] | IC50 (human platelet PDE3) [nM]
1 | OCCn1cc(-c2cnc3nnn(Cc4ccc5ncccc5c4)c3n2)cn1 [Comparator No. 3 (PF-04217903), 2-[4-(3-Quinolin-6-ylmethyl-3H-[1,2,3]triazolo[4,5-b]pyrazin-5-yl)-pyrazol-1-yl]-ethanol, reference compound] | < 10 | – | –
2 | CN1CCN(Cc2cnc3ccc(Sc4nnc5ccc(-c6cnn(C)c6)cn45)cc3c2)CC1 [Example 6, 6-(6-(1-Methyl-1H-pyrazol-4-yl)-[1,2,4]triazolo[4,3-a]pyridin-3-ylthio)-3-((4-methylpiperazin-1-yl)methyl)quinoline] | 27 | 30000 | –
3 | CN1CCC(Nc2cnc3ccc(Sc4nnc5c(F)cc(-c6cnn(C)c6)cn45)cc3c2)CC1 [Example 8, {6-[8-Fluoro-6-(1-methyl-1H-pyrazol-4-yl)-[1,2,4]triazolo[4,3-a]pyridin-3-ylsulfanyl]-quinolin-3-yl}-(1-methyl-piperidin-4-yl)-amine] | – | 30000 | –
4 | Cn1cc(-c2ccc3nnc(Sc4ccc5ncc(N6CCCC(N)C6)cc5c4)n3c2)cn1 (stereo not drawn) [Example 10, 1-(6-(6-(1-Methyl-1H-pyrazol-4-yl)-[1,2,4]triazolo[4,3-a]pyridin-3-ylthio)quinolin-3-yl)piperidin-3-amine] | 21 | – | –
5 | CN(C)[C@H]1CCN(c2cnc3ccc(Sc4nnc5c(F)cc(-c6cnn(C)c6)cn45)cc3c2)C1 [Example 13, (S)-1-(6-(8-Fluoro-6-(1-methyl-1H-pyrazol-4-yl)-[1,2,4]triazolo[4,3-a]pyridin-3-ylthio)quinolin-3-yl)-N,N-dimethylpyrrolidin-3-amine] | 0.4 | 24000 | –
6 | Cn1cc(-c2ccc3nnc(Sc4ccc5ncc(N6CCC(N)CC6)cc5c4)n3c2)cn1 [Example 21, 1-(6-(6-(1-Methyl-1H-pyrazol-4-yl)-[1,2,4]triazolo[4,3-a]pyridin-3-ylthio)quinolin-3-yl)piperidin-4-amine] | 36 | – | –
7 | COC1CCN(c2cnc3ccc(Sc4nnc5ccc(-c6cnn(C)c6)cn45)cc3c2)CC1 [Example 43, 3-(4-Methoxypiperidin-1-yl)-6-(6-(1-methyl-1H-pyrazol-4-yl)-[1,2,4]triazolo[4,3-a]pyridin-3-ylthio)quinoline] | 0.3 | – | –
8 | Cn1cc(-c2cc(F)c3nnc(Sc4ccc5ncc(NCCO)cc5c4)n3c2)cn1 [Example 54, 2-(6-(8-Fluoro-6-(1-methyl-1H-pyrazol-4-yl)-[1,2,4]triazolo[4,3-a]pyridin-3-ylthio)quinolin-3-ylamino)ethanol] | 14 | – | –
9 | Cn1cc(-c2cc(F)c3nnc(Sc4ccc5ncc(N6CCOCC6)cc5c4)n3c2)cn1 [Example 70, 4-(6-(8-Fluoro-6-(1-methyl-1H-pyrazol-4-yl)-[1,2,4]triazolo[4,3-a]pyridin-3-ylthio)quinolin-3-yl)morpholine] | 1 | – | –
10 | CN1CCN(c2cnc3ccc(Sc4nnc5ccc(-c6cnn(C)c6)cn45)cc3c2)CC1 [Example 74, 3-(4-Methyl-piperazin-1-yl)-6-[6-(1-methyl-1H-pyrazol-4-yl)-[1,2,4]triazolo[4,3-a]pyridin-3-ylsulfanyl]-quinoline] | 2 | – | –
11 | C/C(=N\OCCO)c1ccc2nnc(Sc3ccc4ncc(N5CCOCC5)cc4c3)n2c1 [Example 78, (E)-1-(3-((3-Morpholin-4-yl-quinolin-6-yl)thio)-[1,2,4]triazolo[4,3-a]pyridin-6-yl)ethanone O-(2-hydroxyethyl)oxime] | – | 28000 | –
12 | C/C(=N\OCCO)c1ccc2nnc(Sc3ccc4ncc(CN5CCOCC5)cc4c3)n2c1 [Example 80, (E)-1-(3-((3-(Morpholin-4-yl-methyl)quinolin-6-yl)thio)-[1,2,4]triazolo[4,3-a]pyridin-6-yl)ethanone O-(2-hydroxyethyl)oxime] | – | 30000 | –
13 | C/C(=N\O)c1ccc2nnc(Sc3ccc4ncc(N5CC[C@H](N(C)C)C5)cc4c3)n2c1 [Example 82, (S,E)-1-(3-(3-(3-(Dimethylamino)pyrrolidin-1-yl)quinolin-6-ylthio)-[1,2,4]triazolo[4,3-a]pyridin-6-yl)ethanone oxime] | – | – | 11000
